pIC50: −log10 of the molar value.
How the values were obtained:
[1] = test system: Phospho-Rb (Ser807/811) in MCF7 cells; assay: Phospho-Rb expression inhibition in MCF7 cells quantified by in cell Western; format: cell-based, human; conditions: Homo sapiens, MCF7, 24 h, 24 hours, in cell Western, read-out: MCF7 pRb IC50
Procedure, shortened: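 MCF7 cells were seeded at 20,000/well, grown overnight, then treated 24 h at 37 °C with compound dilutions (0.1% DMSO from 1000× stocks). Fixed cells were co-stained for phospho-Rb Ser807/811 and total Rb. Near-infrared dual-channel in-cell Western imaging was the read-out.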

22RV1 cells = assay: Cell growth inhibition of 22RV1 cells (CellTiter-Glo); format: cell-based; conditions: Homo sapiens, 22Rv1, 120 h, 5 days, CellTiter-Glo, read-out: 22RV1 Cell Growh GI50
Procedure, shortened: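 22RV1 cells were plated in RPMI1640 with FBS (20% in one version, 10% in the other) and dosed next day at various concentrations from DMSO stocks. After 5 days at 37 °C, viability was measured by CellTiter-Glo luminescence.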

Structure (SMILES) | pIC50 [1] | GI50 (22RV1 cells) [nM]
Cc1c(CN2CC[C@H](F)C2)n(C(C)C)c2cc(-c3nc(N[C@@H]4C[C@H]5CO[C@H](O5)[C@H]4O)ncc3F)ccc2c1=O [Compound 293, 7-(5-fluoro-2-(((1S,3R,4S,5R)-4-hydroxy-6,8-dioxabicyclo[3.2.1]octan-3-yl)amino)pyrimidin-4-yl)-2-(((S)-3-fluoropyrrolidin-1-yl)methyl)-1-isopropyl-3-methylquinolin-4(1H)-one] | ≥ 7.40 | ≤ 120
CC(C)n1c([C@@H]2CCOC2)nc2c(F)cc(-c3nc(N[C@@H]4C[C@H]5CO[C@H](O5)[C@H]4O)ncc3F)cc21 [Compound 270, (1S,3R,4S,5R)-3-((5-fluoro-4-(4-fluoro-1-isopropyl-2-((S)-tetrahydrofuran-3-yl)-1H-benzo[d]imidazol-6-yl)pyrimidin-2-yl)amino)-6,8-dioxabicyclo[3.2.1]octan-4-ol] | 6.82 to 7.40 | 120 to 450
Cc1c(-c2nc(N[C@@H]3C[C@H]4CO[C@H](O4)[C@H]3O)ncc2F)sc2c(Cl)c(C(C)(C)O)cnc12 [Compound 276, (1S,3R,4S,5R)-3-((4-(7-chloro-6-(2-hydroxypropan-2-yl)-3-methylthieno[3,2-b]pyridin-2-yl)-5-fluoropyrimidin-2-yl)amino)-6,8-dioxabicyclo[3.2.1]octan-4-ol] | ≥ 7.40 | 120 to 450
CC(C)n1c([C@H]2CCOC2)nc2c(F)cc(-c3nc(N[C@@H]4C[C@H]5CO[C@H](O5)[C@H]4O)ncc3F)cc21 [Compound 269, (1S,3R,4S,5R)-3-((5-fluoro-4-(4-fluoro-1-isopropyl-2-((R)-tetrahydrofuran-3-yl)-1H-benzo[d]imidazol-6-yl)pyrimidin-2-yl)amino)-6,8-dioxabicyclo[3.2.1]octan-4-ol] | 6.82 to 7.40 | 120 to 450
Cc1c(-c2nc(N[C@@H]3C[C@H]4CO[C@H](O4)[C@H]3O)ncc2Cl)sc2c(C(C)C)cnnc12 [Compound 259, (1S,3R,4S,5R)-3-((5-chloro-4-(4-isopropyl-7-methylthieno[3,2-c]pyridazin-6-yl)pyrimidin-2-yl)amino)-6,8-dioxabicyclo[3.2.1]octan-4-ol] | ≥ 7.40 | ≤ 120
Cc1nc2c(F)cc(-c3nc(N[C@@H]4C[C@H]5CO[C@H](O5)[C@H]4O)ncc3Cl)cc2n1C(C)C [Compound 25, (1S,3R,4S,5R)-3-((5-chloro-4-(4-fluoro-1-isopropyl-2-methyl-1H-benzo[d]imidazol-6-yl)pyrimidin-2-yl)amino)-6,8-dioxabicyclo[3.2.1]octan-4-ol] | 6.82 to 7.40 | 120 to 450
COC(=O)N1CC[C@@H](c2nc3c(F)cc(-c4nc(N[C@@H]5C[C@H]6CO[C@H](O6)[C@H]5O)ncc4F)cc3n2C(C)C)C1 [Compound 265, methyl (R)-3-(4-fluoro-6-(5-fluoro-2-(((1S,3R,4S,5R)-4-hydroxy-6,8-dioxabicyclo[3.2.1]octan-3-yl)amino)pyrimidin-4-yl)-1-isopropyl-1H-benzo[d]imidazol-2-yl)pyrrolidine-1-carboxylate] | 6.82 to 7.40 | 120 to 450
Cc1c(C)n(C(C)C)c2cc(-c3nc(N[C@@H]4C[C@H]5CO[C@H](O5)[C@H]4O)ncc3Cl)ccc2c1=O [Compound 191, 7-(5-chloro-2-(((1S,3R,4S,5R)-4-hydroxy-6,8-dioxabicyclo[3.2.1]octan-3-yl)amino)pyrimidin-4-yl)-1-isopropyl-2,3-dimethylquinolin-4(1H)-one] | 6.82 to 7.40 | 450 to 3000
CNCc1c(C)c(=O)c2ccc(-c3nc(N[C@@H]4C[C@H]5CO[C@H](O5)[C@H]4O)ncc3F)cc2n1C(C)C [Compound 194, 7-(5-fluoro-2-(((1S,3R,4S,5R)-4-hydroxy-6,8-dioxabicyclo[3.2.1]octan-3-yl)amino)pyrimidin-4-yl)-1-isopropyl-3-methyl-2-((methylamino)methyl)quinolin-4(1H)-one] | 6.82 to 7.40 | 120 to 450
Cc1c(CN2[C@@H](C)COC[C@@H]2C)n(C(C)C)c2cc(-c3nc(N[C@@H]4C[C@H]5CO[C@H](O5)[C@H]4O)ncc3Cl)ccc2c1=O [Compound 206, 7-(5-chloro-2-(((1S,3R,4S,5R)-4-hydroxy-6,8-dioxabicyclo[3.2.1]octan-3-yl)amino)pyrimidin-4-yl)-2-(((3S,5S)-3,5-dimethylmorpholino)methyl)-1-isopropyl-3-methylquinolin-4(1H)-one] | ≥ 7.40 | ≤ 120
CC(C)(O)c1cnc2c(F)cc(-c3nc(N[C@@H]4C[C@H]5CO[C@H](O5)[C@H]4O)ncc3Cl)cc2c1Cl [Compound 252, (1S,3R,4S,5R)-3-((5-chloro-4-(4-chloro-8-fluoro-3-(2-hydroxypropan-2-yl)quinolin-6-yl)pyrimidin-2-yl)amino)-6,8-dioxabicyclo[3.2.1]octan-4-ol] | ≥ 7.40 | ≤ 120
CC(C)n1c(CN2[C@@H](C)COC[C@@H]2C)cc(=O)c2ccc(-c3nc(N[C@@H]4C[C@H]5CO[C@H](O5)[C@H]4O)ncc3Cl)cc21 [Compound 205, 7-(5-chloro-2-(((1S,3R,4S,5R)-4-hydroxy-6,8-dioxabicyclo[3.2.1]octan-3-yl)amino)pyrimidin-4-yl)-2-(((3S,5S)-3,5-dimethylmorpholino)methyl)-1-isopropylquinolin-4(1H)-one] | 6.82 to 7.40 | 120 to 450
CC(C)(O)c1cnc2c(F)cc(-c3nc(N[C@@H]4C[C@H]5CO[C@H](O5)[C@H]4O)ncc3F)cc2c1Cl [Compound 255, (1S,3R,4S,5R)-3-((4-(4-chloro-8-fluoro-3-(2-hydroxypropan-2-yl)quinolin-6-yl)-5-fluoropyrimidin-2-yl)amino)-6,8-dioxabicyclo[3.2.1]octan-4-ol] | ≥ 7.40 | ≤ 120
Cc1c(C(C)(C)O)cnc2c(F)cc(-c3nc(N[C@@H]4C[C@H]5CO[C@H](O5)[C@H]4O)ncc3F)cc12 [Compound 256, (1S,3R,4S,5R)-3-((5-fluoro-4-(8-fluoro-3-(2-hydroxypropan-2-yl)-4-methylquinolin-6-yl)pyrimidin-2-yl)amino)-6,8-dioxabicyclo[3.2.1]octan-4-ol] | ≥ 7.40 | ≤ 120
CC(C)n1c(CN2[C@@H](C)COC[C@@H]2C)c(C(F)F)c(=O)c2ccc(-c3nc(N[C@@H]4C[C@H]5CO[C@H](O5)[C@H]4O)ncc3Cl)cc21 [Compound 204, 7-(5-chloro-2-(((1S,3R,4S,5R)-4-hydroxy-6,8-dioxabicyclo[3.2.1]octan-3-yl)amino)pyrimidin-4-yl)-3-(difluoromethyl)-2-(((3S,5S)-3,5-dimethylmorpholino)methyl)-1-isopropylquinolin-4(1H)-one] | 6.82 to 7.40 | 120 to 450
Cc1c(-c2nc(N[C@@H]3C[C@H]4CO[C@H](O4)[C@H]3O)ncc2Cl)sc2c(C)c(C(C)(C)O)cnc12 [Compound 277, (1S,3R,4S,5R)-3-((5-chloro-4-(6-(2-hydroxypropan-2-yl)-3,7-dimethylthieno[3,2-b]pyridin-2-yl)pyrimidin-2-yl)amino)-6,8-dioxabicyclo[3.2.1]octan-4-ol] | ≥ 7.40 | 120 to 450
Cc1c(-c2nc(N[C@@H]3C[C@H]4CO[C@H](O4)[C@H]3O)ncc2Cl)sc2c(Cl)c(C(C)(C)O)cnc12 [Compound 275, (1S,3R,4S,5R)-3-((5-chloro-4-(7-chloro-6-(2-hydroxypropan-2-yl)-3-methylthieno[3,2-b]pyridin-2-yl)pyrimidin-2-yl)amino)-6,8-dioxabicyclo[3.2.1]octan-4-ol] | 6.82 to 7.40 | 450 to 3000
CC(C)n1c([C@@H]2CC2(F)F)nc2c(F)cc(-c3nc(N[C@@H]4C[C@H]5CO[C@H](O5)[C@H]4O)ncc3Cl)cc21 [Compound 216, (1S,3R,4S,5R)-3-((5-chloro-4-(2-((S)-2,2-difluorocyclopropyl)-4-fluoro-1-isopropyl-1H-benzo[d]imidazol-6-yl)pyrimidin-2-yl)amino)-6,8-dioxabicyclo[3.2.1]octan-4-ol] | ≥ 7.40 | ≤ 120
Cc1c(CN2CCC2)n(C(C)C)c2cc(-c3nc(N[C@@H]4C[C@H]5CO[C@H](O5)[C@H]4O)ncc3F)ccc2c1=O [Compound 196, 2-(azetidin-1-ylmethyl)-7-(5-fluoro-2-(((1S,3R,4S,5R)-4-hydroxy-6,8-dioxabicyclo[3.2.1]octan-3-yl)amino)pyrimidin-4-yl)-1-isopropyl-3-methylquinolin-4(1H)-one] | 6.82 to 7.40 | 120 to 450
CCn1cc(C(C)C)c2sc(-c3nc(N[C@@H]4C[C@H]5CO[C@H](O5)[C@H]4O)ncc3Cl)c(C)c2c1=O [Compound 230, 5-ethyl-2-(5-chloro-2-(((1S,3R,4S,5R)-4-hydroxy-6,8-dioxabicyclo[3.2.1]octan-3-yl)amino)pyrimidin-4-yl)-7-isopropyl-3-methylthieno[3,2-c]pyridin-4(5H)-one] | ≥ 7.40 | 120 to 450
Cc1c(C(C)(C)O)cnc2c(F)cc(-c3nc(N[C@@H]4C[C@H]5CO[C@H](O5)[C@H]4O)ncc3Cl)cc12 [Compound 257, (1S,3R,4S,5R)-3-((5-chloro-4-(8-fluoro-3-(2-hydroxypropan-2-yl)-4-methylquinolin-6-yl)pyrimidin-2-yl)amino)-6,8-dioxabicyclo[3.2.1]octan-4-ol] | ≥ 7.40 | ≤ 120
CC(C)n1c(N2C(=O)OC[C@@H]2C)nc2c(F)cc(-c3nc(N[C@@H]4C[C@H]5CO[C@H](O5)[C@H]4O)ncc3Cl)cc21 [Compound 298, (S)-3-(6-(5-chloro-2-(((1S,3R,4S,5R)-4-hydroxy-6,8-dioxabicyclo[3.2.1]octan-3-yl)amino)pyrimidin-4-yl)-4-fluoro-1-isopropyl-1H-benzo[d]imidazol-2-yl)-4-methyloxazolidin-2-one] | 6.00 to 6.82 | 450 to 3000

From US20250084095A1, “Aminopyrimidine Derivatives as Cyclin-Dependent Kinase Inhibitors” (Accutar Biotechnology Inc., priority 2023, published 2025)
